Measured values as given in US9359298B2, “Cajanine structure analogous compound, preparation method and use” (INSTITUTE OF MEDICINAL BIOTECHNOLOGY, CHINESE ACADEMY OF …, priority 2011, dated 2016).
Values after ≈ are worked out from the molar mass of the structure shown.

Experiments:
Format in all cases: cell-based
[1] = test system: PC12 cells; test: Neuroprotective activity assay, rotenone injury to PC12 cells (MTT); details: Rattus norvegicus, PC-12, 48 h, 10 μM test compound, 4 μM rotenone, 48 h; Control 100.0 ± 8.9, Model 73.2 ± 7.8; read-out: rotenone (surviving PC12 cells, MTT 570 nm)
Outline: (§1)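 PC12 cells on poly-lysine plated 24 h, then injured 48 h by serum-free DMEM or 4 μM rotenone with 10 μM test compound present during injury. Viability read by MTT (4 h), absorbance 570 nm.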

[2] = test system: HIV-1 III B virus; test: Anti-HIV activity assay (P24 antigen in MT-4 cells); details: for IC50: Human immunodeficiency virus 1, MT4, 96 h, MT-4 cells, HIV-1 III B 100TCID50, 96 h, P24 antigen, read-out: HIV IC50; for anti-HIV viral activity: statement in words
[3] = test system: Influenza A virus (hanfang359/95); test: Determination of anti-influenza virus activity (CPE in MDCK cells); details: for IC50: Influenza A virus, MDCK, 36 h; for anti-influenza virus activities compared with the lead compound cajanine: statement in words
[4] = test system: HCV; test: Anti-hepatitis C virus (HCV) activity assay (HCV RNA in Huh7.5 cells); details: for EC50: Hepatitis C virus, Huh7.5, 72 h, Huh7.5 cells, 72 h, HCV RNA by RT-PCR, Reed-Muench, read-out: HCV EC50; for anti-HCV viral activity: statement in words
Experimental: Inoculate Huh7.5 cells into 96-well plates to a density of 3×10^4 cells/cm^2, culture for 24h, infect the cells with 45 IU/cell HCV supernatant, meanwhile, add drug solutions or solvent control for treatment.

[5] = test system: PC12 cells; test: Neuroprotective activity assay, serum-deprived injury to PC12 cells (MTT); details: Rattus norvegicus, PC-12, 48 h, 10 μM test compound, 48 h; Control 100.0 ± 9.2, Model 69.3 ± 4.1; read-out: serum-deprived (surviving PC12 cells, MTT 570 nm)
Outline: as §1

[6] = test system: Coxsackie virus B6; test: Coxsackie virus activity assay (CPE in Vero cells); details: Vero, read-out: COX-B6 IC50, Vero cells, about 100TCID50, CPE, Reed-Muench

SMILES | viability at 10 µM [1] [%] | IC50 [2] [µg/mL] | IC50 [3] [µg/mL] | EC50 [4] [µg/mL] | viability at 10 µM [5] [%] | IC50 [6] [µg/mL] | anti-HIV viral activity [2] | anti-HCV viral activity [4] | anti-influenza virus activities compared with the lead compound cajanine [3]
COC(=O)c1c(/C=C/c2ccc(OC)cc2)cc(OC)c(CC=C(C)C)c1O [Compound 8c, methyl 2-hydroxy-3-isopentenyl-4-methoxy-6-[(E)-4-methoxystyryl]-benzoate] | 71.9 ± 6.1 | 1.99 (≈ 5.2 µM) | > 2.06 | 3.06 (≈ 8 µM) | 67.3 ± 10 | 4.79 (≈ 12.5 µM) |  |  | 
COC(=O)/C(=C\c1cc(OC)c(CC=C(C)C)c(O)c1C(=O)OC)c1ccccc1 [Compound 8s] | 76.8 ± 5.4 | 0.52 (≈ 1.27 µM) | 0.24 (≈ 0.585 µM) | 0.84 (≈ 2.05 µM) | 79.8 ± 5.2 | 3.52 (≈ 8.58 µM) | stronger anti-HIV, HCV viral activities | stronger anti-HIV, HCV viral activities | 
COc1cc(/C=C/c2ccccn2)cc(O)c1CC=C(C)C [Compound 10x, 2-isopentenyl-3-methoxy-5-[(E)-2-(pyrid-2-yl)ethenyl]phenol] | 78.9 ± 5.4 | 1.09 (≈ 3.69 µM) | 0.09 (≈ 0.305 µM) | 0.93 (≈ 3.15 µM) | 78.9 ± 4.6 | 0.42 (≈ 1.42 µM) |  |  | significantly stronger than the lead compound cajanine
COc1cc(/C=C/c2cc(O)c(O)c(O)c2)cc(OC)c1 [Compound 21j, 1,3-dimethoxy-5-[(E)-3,4,5-trihydroxystyryl]benzene] | 75.6 ± 4.6 | 1.04 (≈ 3.61 µM) | 0.98 (≈ 3.4 µM) | 1.33 (≈ 4.61 µM) | 69.3 ± 2.5 | 1.34 (≈ 4.65 µM) |  |  | 
COc1cc(/C=C/c2ccccc2)c(C(=O)O)c(OC(=O)CN(C)C)c1CC=C(C)C [Compound 24n, 2-(N,N-dimethylacetyloxy)-3-isopentenyl-4-methoxy-6-[(E)-styryl]benzoic acid] | 79.8 ± 5.6 | 3.12 (≈ 7.37 µM) | 7.21 (≈ 17 µM) | 1.97 (≈ 4.65 µM) | 75.8 ± 3.2 | 1.35 (≈ 3.19 µM) |  |  | 
COc1cc(/C=C/c2ccccc2)c(C(=O)O)c(OCC2CNCCN2)c1CC=C(C)C (centres unmarked) [Compound 26e, 2-(piperazin-2-yl)methoxy-3-isopentenyl-4-methoxy-6-[(E)-styryl]benzoic acid] | 87.6 ± 5.6 | 2.77 (≈ 6.35 µM) | 2.31 (≈ 5.29 µM) | 2.28 (≈ 5.22 µM) | 85.6 ± 2.9 | 1.32 (≈ 3.02 µM) |  |  | 
COc1cc(/C=C/c2cccc(O)n2)cc(O)c1CC=C(C)C [10g′] | 63.5 ± 2.1 | 3.93 (≈ 12.6 µM) | 0.87 (≈ 2.79 µM) | 2.3 (≈ 7.39 µM) | 71 ± 5.2 | 0.12 (≈ 0.385 µM) |  |  | 
COc1cc(/C=C/c2ccc(O)cc2)cc(O)c1CC=C(C)C [Compound 10q, 2-isopentenyl-3-methoxy-5-[(E)-4′-hydroxystyryl]-phenol] | 76.8 ± 5.8 | 2.38 (≈ 7.67 µM) | 1.39 (≈ 4.48 µM) | 0.89 (≈ 2.87 µM) | 79.5 ± 1.4 | 2.35 (≈ 7.57 µM) | stronger anti-HIV, HCV viral activities | stronger anti-HIV, HCV viral activities | significantly stronger than the lead compound cajanine
COc1cc(/C=C/Cc2ccccc2)cc(OC)c1 [Compound 21a, 1,3-dimethoxy-5-[(E)-3-phenylpropen-1-yl]benzene] | 80.5 ± 2.3 | 1.1 (≈ 4.33 µM) | 1.32 (≈ 5.19 µM) | 2.83 (≈ 11.1 µM) | 81.2 ± 2.4 | 4.23 (≈ 16.6 µM) |  |  | 
CC/C=C/c1cc(OC)c(CC=C(C)C)c(O)c1C(=O)O [Compound 1h, 2-hydroxy-3-isopentenyl-4-methoxy-6-[(E)-buten-1-yl]benzoic acid] | 70 ± 7.1 | 2.39 (≈ 8.23 µM) | 1.92 (≈ 6.61 µM) | 2.6 (≈ 8.95 µM) | 43.8 ± 8.8 | 15.3 (≈ 52.7 µM) |  |  | 
COc1cc(/C=C/c2cc(O)cc(O)n2)c(C(=O)O)c(O)c1CC=C(C)C [1a′, 2-hydroxy-3-isopentenyl-4-methoxy-6-[(E)-2-(4,6-dihydroxy-2-yl)ethenyl]benzoic acid] | 87.2 ± 4.3 | 1.38 (≈ 3.72 µM) | 0.19 (≈ 0.512 µM) | 0.94 (≈ 2.53 µM) | 88.7 ± 4.9 | 0.36 (≈ 0.969 µM) | stronger anti-HIV, HCV viral activities | stronger anti-HIV, HCV viral activities | 
